Laboratory results taken from the NIST ThermoML archive (doi:10.1016/j.jct.2013.02.001).
Where “and” joins values, the source holds several entries; their conditions need not be identical. Equal entries are not always repeated.

Assay: molar heat capacity at constant pressure
Details: 101.33 kPa, Quantum Design PPMS relaxation calorimeter

O=P([O-])([O-])OP(=O)([O-])[O-].[Fe+2].[Fe+2] [iron(II) pyrophosphate]
molar heat capacity at constant pressure
Details | Crystal 1 | Crystal 2
1 K | – | 0.08666 J/K/mol
1.913 K | – | 0.1778 J/K/mol
2 K | – | 0.1915 J/K/mol
2.064 K | – | 0.1986 J/K/mol
2.26 K | – | 0.2225 J/K/mol
2.531 K | – | 0.2638 J/K/mol
2.801 K | – | 0.3059 J/K/mol
3 K | – | 0.3363 J/K/mol
3.099 K | – | 0.357 J/K/mol
3.44 K | – | 0.423 J/K/mol
3.822 K | – | 0.5078 J/K/mol
4 K | – | 0.5546 J/K/mol
4.26 K | – | 0.6259 J/K/mol
4.75 K | – | 0.7875 J/K/mol
5 K | – | 0.8911 J/K/mol
5.271 K | – | 1.009 J/K/mol
5.851 K | – | 1.309 J/K/mol
6 K | – | 1.402 J/K/mol
6.516 K | – | 1.743 J/K/mol
7 K | – | 2.14 J/K/mol
7.28 K | – | 2.343 J/K/mol
8 K | – | 3.105 J/K/mol
8.038 K | – | 3.122 J/K/mol
8.944 K | – | 4.246 J/K/mol
9 K | – | 4.353 J/K/mol
9.847 K | – | 5.612 J/K/mol
10 K | – | 5.87 J/K/mol
10.08 K | – | 5.991 J/K/mol
10.35 K | – | 6.444 J/K/mol
10.86 K | – | 7.341 J/K/mol
11 K | – | 7.59 J/K/mol
11.2 K | – | 7.958 J/K/mol
11.38 K | – | 8.272 J/K/mol
11.88 K | – | 9.198 J/K/mol
12 K | – | 9.403 J/K/mol
12.4 K | – | 10.13 J/K/mol
12.41 K | – | 10.27 J/K/mol
12.91 K | – | 11.04 J/K/mol
13 K | – | 11.22 J/K/mol
13.42 K | – | 11.97 J/K/mol
13.81 K | – | 12.78 J/K/mol
13.93 K | – | 12.96 J/K/mol
14 K | – | 13.1 J/K/mol
14.15 K | – | 13.36 J/K/mol
14.44 K | – | 13.97 J/K/mol
14.67 K | – | 14.41 J/K/mol
14.95 K | – | 15.04 J/K/mol
15 K | – | 15.16 J/K/mol
15.19 K | – | 15.57 J/K/mol
15.31 K | – | 15.94 J/K/mol
15.46 K | – | 16.16 J/K/mol
15.7 K | – | 16.68 J/K/mol
15.96 K | – | 17.32 J/K/mol
16 K | – | 17.48 J/K/mol
16.21 K | – | 17.94 J/K/mol
16.46 K | – | 18.55 J/K/mol
16.73 K | – | 19.27 J/K/mol
16.97 K | – | 19.88 J/K/mol
17 K | – | 20.05 J/K/mol
17.03 K | – | 20.07 J/K/mol
17.21 K | – | 20.48 J/K/mol
17.47 K | – | 21.15 J/K/mol
17.72 K | – | 21.75 J/K/mol
17.97 K | – | 22.35 J/K/mol
18 K | – | 22.46 J/K/mol
18.22 K | – | 22.9 J/K/mol
18.45 K | – | 23.46 J/K/mol
18.7 K | – | 23.76 J/K/mol
18.86 K | – | 23.9 J/K/mol
18.96 K | 23.94 J/K/mol and 23.94 J/K/mol | 23.94 J/K/mol
19 K | 23.61 J/K/mol | –
19.22 K | 23.87 J/K/mol | –
19.47 K | 23.67 J/K/mol | –
19.72 K | 23.25 J/K/mol | –
19.96 K | 22.81 J/K/mol | –
20 K | 22.76 J/K/mol | –
20.21 K | 22.3 J/K/mol | –
20.45 K | 21.81 J/K/mol | –
20.7 K | 21.41 J/K/mol | –
20.95 K | 21.05 J/K/mol | –
21.21 K | 20.68 J/K/mol | –
21.46 K | 20.31 J/K/mol | –
21.71 K | 20.15 J/K/mol | –
21.96 K | 20.02 J/K/mol | –
22.21 K | 19.89 J/K/mol | –
22.47 K | 19.76 J/K/mol | –
22.74 K | 19.73 J/K/mol | –
22.99 K | 19.67 J/K/mol | –
23.23 K | 19.65 J/K/mol | –
23.29 K | 19.66 J/K/mol | –
23.48 K | 19.65 J/K/mol | –
23.52 K | 19.74 J/K/mol | –
23.7 K | 19.62 J/K/mol | –
23.73 K | 19.62 J/K/mol | –
23.9 K | 19.67 J/K/mol | –
23.98 K | 19.66 J/K/mol | –
24.1 K | 19.7 J/K/mol | –
24.3 K | 19.72 J/K/mol | –
24.47 K | 19.77 J/K/mol | –
24.66 K | 19.78 J/K/mol | –
24.86 K | 19.85 J/K/mol | –
25 K | 19.89 J/K/mol and 19.88 J/K/mol | –
25.05 K | 19.91 J/K/mol | –
25.25 K | 19.94 J/K/mol | –
25.46 K | 19.99 J/K/mol | –
25.48 K | 20.02 J/K/mol | –
25.65 K | 20.06 J/K/mol | –
25.84 K | 20.15 J/K/mol | –
25.86 K | 20.19 J/K/mol | –
25.98 K | 20.18 J/K/mol | –
26.04 K | 20.21 J/K/mol | –
26.23 K | 20.27 J/K/mol | –
26.42 K | 20.35 J/K/mol | –
26.51 K | 20.4 J/K/mol | –
26.62 K | 20.45 J/K/mol | –
26.81 K | 20.52 J/K/mol | –
26.98 K | 20.63 J/K/mol | –
27 K | 20.61 J/K/mol | –
27.2 K | 20.71 J/K/mol | –
27.39 K | 20.81 J/K/mol | –
27.53 K | 20.88 J/K/mol | –
27.58 K | 20.9 J/K/mol | –
27.78 K | 20.99 J/K/mol | –
27.98 K | 20.92 J/K/mol | –
27.99 K | 20.94 J/K/mol | –
28.18 K | 20.76 J/K/mol | –
28.34 K | 20.71 J/K/mol | –
28.53 K | 20.72 J/K/mol | –
28.55 K | 20.74 J/K/mol | –
28.68 K | 20.78 J/K/mol | –
28.75 K | 20.76 J/K/mol | –
28.95 K | 20.82 J/K/mol | –
29.05 K | 20.85 J/K/mol | –
29.12 K | 20.86 J/K/mol | –
29.33 K | 20.93 J/K/mol | –
29.51 K | 21.05 J/K/mol | –
29.53 K | 20.99 J/K/mol | –
29.72 K | 21.07 J/K/mol | –
29.91 K | 21.11 J/K/mol | –
30 K | 21.15 J/K/mol | –
30.06 K | 21.18 J/K/mol | –
30.11 K | 21.2 J/K/mol | –
30.3 K | 21.27 J/K/mol | –
30.5 K | 21.35 J/K/mol | –
30.52 K | 21.34 J/K/mol | –
30.7 K | 21.43 J/K/mol | –
30.89 K | 21.5 J/K/mol | –
31.05 K | 21.58 J/K/mol | –
31.54 K | 21.77 J/K/mol | –
31.86 K | 21.93 J/K/mol | –
32.06 K | 22.02 J/K/mol | –
32.55 K | 22.21 J/K/mol | –
33.06 K | 22.48 J/K/mol | –
33.6 K | 22.75 J/K/mol | –
34.07 K | 22.98 J/K/mol | –
35 K | 23.58 J/K/mol | –
35.39 K | 23.86 J/K/mol | –
39.3 K | 26.23 J/K/mol | –
40 K | 26.79 J/K/mol | –
43.62 K | 29.29 J/K/mol | –
45 K | 30.48 J/K/mol | –
48.44 K | 33.24 J/K/mol | –
50 K | 34.53 J/K/mol | –
53.8 K | 37.9 J/K/mol | –
55 K | 38.88 J/K/mol | –
59.7 K | 43.41 J/K/mol | –
60 K | 43.45 J/K/mol | –
65 K | 48.17 J/K/mol | –
66.33 K | 49.51 J/K/mol | –
70 K | 52.96 J/K/mol | –
73.67 K | 56.22 J/K/mol | –
75 K | 57.77 J/K/mol | –
80 K | 62.51 J/K/mol | –
81.81 K | 63.97 J/K/mol | –
85 K | 67.27 J/K/mol | –
90 K | 72.12 J/K/mol | –
90.85 K | 72.47 J/K/mol | –
95 K | 76.73 J/K/mol | –
100 K | 81.13 J/K/mol | –
100.84 K | 81.1 J/K/mol | –
110 K | 89.39 J/K/mol | –
110.99 K | 89.55 J/K/mol | –
120 K | 97.12 J/K/mol | –
120.88 K | 97.62 J/K/mol | –
130 K | 104.5 J/K/mol | –
131.05 K | 105.42 J/K/mol | –
140 K | 111.61 J/K/mol | –
141.03 K | 112.91 J/K/mol | –
150 K | 118.53 J/K/mol | –
151.17 K | 119.77 J/K/mol | –
160 K | 125.27 J/K/mol | –
161.25 K | 126.73 J/K/mol | –
170 K | 131.84 J/K/mol | –
171.3 K | 133.11 J/K/mol | –
180 K | 138.23 J/K/mol | –
181.45 K | 139.41 J/K/mol | –
190 K | 144.41 J/K/mol | –
191.55 K | 145.2 J/K/mol | –
200 K | 150.38 J/K/mol | –
201.65 K | 151.21 J/K/mol | –
210 K | 156.13 J/K/mol | –
211.78 K | 157.08 J/K/mol | –
220 K | 161.63 J/K/mol | –
221.88 K | 161.91 J/K/mol | –
230 K | 166.89 J/K/mol | –
232.02 K | 167.23 J/K/mol | –
240 K | 171.91 J/K/mol | –
242.09 K | 171.91 J/K/mol | –
250 K | 176.68 J/K/mol | –
252.14 K | 177.54 J/K/mol | –
260 K | 181.21 J/K/mol | –
262.21 K | 182.5 J/K/mol | –
270 K | 185.5 J/K/mol | –
272.36 K | 187.75 J/K/mol | –
273.15 K | 186.8 J/K/mol | –
280 K | 189.56 J/K/mol | –
282.44 K | 193.26 J/K/mol | –
290 K | 193.4 J/K/mol | –
292.45 K | 194.84 J/K/mol | –
298.15 K | 196.38 J/K/mol | –
300 K | 197.04 J/K/mol | –
302.52 K | 200.88 J/K/mol | –
